Data on 8 compounds can be found in PubChem BioAssay (NCI).

Structures are written as SMILES. “And” between values parts separate entries of the source, which are not always exact repeats. Equal values may be shown once.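 Interpolation was linear, between the two tested concentrations surrounding the appropriate level; five concentrations were tested over 48 hours in 96-well plates. Here, GI50 denotes the concentration required for 50% inhibition of growth. At the TGI there is no net growth.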 Some results are limits rather than exact numbers.

Test systems include CCRF-CEM leukemia; HS 578T breast; MALME-3M melanoma; NCI/ADR-RES ovarian; PC-3 prostate; SK-MEL-2 melanoma; SK-MEL-28 melanoma; SNB-75 CNS; U251 CNS; UACC-62 melanoma.
Holding throughout (assay): inhibition of tumour cell growth, NCI panel, 48 h

As for `CCN(C)c1nc(N(C)CC)c2nc(N(C)CC)nc(N(C)CC)c2n1`, the TGI in the test with CCRF-CEM leukemia, with HS 578T breast, in the test on MALME-3M melanoma, with NCI/ADR-RES ovarian, in the test with PC-3 prostate and in the test on SK-MEL-2 melanoma was more than 100 µM in each case. Moreover, the TGI in the test on SK-MEL-28 melanoma, in the test with SNB-75 CNS, in the test with U251 CNS and in the test with UACC-62 melanoma was more than 100 µM in each case.

On to `CCn1cc(C(=O)O)c(=O)c2cc(F)c(N3CCN(S(=O)(=O)c4cccc5ccccc45)CC3)cc21`, for which the GI50 in the test on CCRF-CEM leukemia is 3.67 µM; with HS 578T breast it was 2.68 µM; in the test with MALME-3M melanoma, 2.83 µM; in the test on NCI/ADR-RES ovarian it was 3.2 µM; in the test with PC-3 prostate, 2.66 µM; with SK-MEL-2 melanoma, 3.55 µM. For the same compound, the GI50 is 6.09 µM in the test on SK-MEL-28 melanoma, 1.89 µM in the test on SNB-75 CNS, 3.29 µM in the test on U251 CNS and 2.25 µM with UACC-62 melanoma. Besides, the TGI in the test with CCRF-CEM leukemia was more than 100 µM; in the test on HS 578T breast, 9.88 µM; with MALME-3M melanoma, 7.83 µM; in the test with NCI/ADR-RES ovarian, more than 100 µM; with PC-3 prostate, more than 100 µM; with SK-MEL-2 melanoma it was 8.72 µM. The TGI with SK-MEL-28 melanoma is more than 100 µM; in the test with SNB-75 CNS it was 8.49 µM; in the test on U251 CNS, more than 100 µM; in the test with UACC-62 melanoma, 7.73 µM.

As to `Cc1cccc(NC(=O)c2sc3nc4c(cc3c2N)C(=O)CCC4)c1`, the GI50 with CCRF-CEM leukemia was 2.26 µM; in the test with HS 578T breast, 0.291 µM; in the test with MALME-3M melanoma, 0.311 µM; in the test with NCI/ADR-RES ovarian, 0.259 µM; in the test with PC-3 prostate, 0.397 µM; in the test with SK-MEL-2 melanoma, 0.266 µM. Moreover, the GI50 in the test with SK-MEL-28 melanoma was 1.53 µM; in the test on SNB-75 CNS it was 0.272 µM; in the test on U251 CNS, 0.316 µM; with UACC-62 melanoma, 0.49 µM. Besides, the TGI with CCRF-CEM leukemia is more than 100 µM; in the test with HS 578T breast, 12.9 µM; in the test with MALME-3M melanoma, 16.9 µM; in the test on NCI/ADR-RES ovarian it was more than 49.8 µM; in the test with PC-3 prostate, more than 48.1 µM; with SK-MEL-2 melanoma it was more than 54.2 µM. Also, the TGI in the test on SK-MEL-28 melanoma was more than 62.3 µM; with SNB-75 CNS, more than 39.4 µM; with U251 CNS, more than 34.6 µM; with UACC-62 melanoma it was more than 89.1 µM.

Take `CC(=O)ON1CCCC(P(=O)(OCOC(=O)C(C)(C)C)OCOC(=O)C(C)(C)C)C1=O` (stereo unspecified): the GI50 was 0.125 µM in the test with CCRF-CEM leukemia; 0.603 µM with HS 578T breast; 0.453 µM in the test on MALME-3M melanoma; 0.531 µM in the test with NCI/ADR-RES ovarian; 1.23 µM in the test with PC-3 prostate; 1.58 µM with SK-MEL-2 melanoma. Moreover, the GI50 is 0.483 µM in the test with SK-MEL-28 melanoma, 3.31 µM with SNB-75 CNS, 0.458 µM in the test on U251 CNS and 0.405 µM with UACC-62 melanoma. Further, the TGI in the test with CCRF-CEM leukemia is 7.81 µM; in the test with HS 578T breast, 4.4 µM; with MALME-3M melanoma it was 6.63 µM; in the test with NCI/ADR-RES ovarian it was 4.21 µM; in the test with PC-3 prostate it was 17.4 µM; with SK-MEL-2 melanoma, 6.91 µM. The TGI in the test on SK-MEL-28 melanoma was 1.42 µM; in the test with SNB-75 CNS, 18.6 µM; in the test with U251 CNS, 5.58 µM; with UACC-62 melanoma, 1.74 µM.

Regarding `COC1N(C2CC(O)C(CO)O2)C(=O)NC(=O)C1(F)Br` (stereo unspecified), the GI50 in the test with CCRF-CEM leukemia is 27.6 µM; in the test on MALME-3M melanoma, 35.1 µM; in the test with SK-MEL-2 melanoma it was more than 50 µM; with SK-MEL-28 melanoma, 30 µM; with SNB-75 CNS, 7.44 µM; in the test on UACC-62 melanoma, more than 50 µM. Moreover, the TGI in the test with CCRF-CEM leukemia is 50 µM and > 75.4 µM; in the test with HS 578T breast, more than 95.5 µM; in the test with MALME-3M melanoma, 50 µM and > 100 µM; in the test on NCI/ADR-RES ovarian it was more than 100 µM; in the test with PC-3 prostate it was more than 100 µM; in the test with SK-MEL-2 melanoma it was more than 100 µM. Moreover, the TGI was 50 µM and > 100 µM in the test on SK-MEL-28 melanoma; 50 µM and 81.6 µM with SNB-75 CNS; 50 µM and > 100 µM in the test on U251 CNS; more than 100 µM with UACC-62 melanoma.

With `O=C1/C(=C/c2ccc(Cl)c(Cl)c2)CN(C(=O)CCN2CCC(=NO)CC2)C/C1=C\c1ccc(Cl)c(Cl)c1`, the GI50 is 0.292 µM in the test with CCRF-CEM leukemia; 1.43 µM in the test on HS 578T breast; 1.32 µM in the test with MALME-3M melanoma; 1.02 µM with NCI/ADR-RES ovarian; 0.545 µM with PC-3 prostate; 2.05 µM in the test with SK-MEL-2 melanoma. Further, the GI50 was 1.64 µM in the test with SK-MEL-28 melanoma, 1.38 µM in the test on SNB-75 CNS, 0.268 µM in the test with U251 CNS and 0.664 µM in the test with UACC-62 melanoma. For the same compound, the TGI in the test with CCRF-CEM leukemia is 1.73 µM; in the test on HS 578T breast it was 5.68 µM; with MALME-3M melanoma, 2.78 µM; in the test with NCI/ADR-RES ovarian, 4.04 µM; in the test with PC-3 prostate it was 1.66 µM; in the test with SK-MEL-2 melanoma, 4.3 µM. The TGI stood at 3.07 µM with SK-MEL-28 melanoma, 3.17 µM with SNB-75 CNS, 0.818 µM in the test on U251 CNS and 1.87 µM in the test on UACC-62 melanoma.

As for `CCn1c2c(c3ccccc3c1=O)C(=O)c1ccccc1-2`, the TGI in the test with CCRF-CEM leukemia, with HS 578T breast, in the test on MALME-3M melanoma, with NCI/ADR-RES ovarian, in the test on PC-3 prostate and in the test on SK-MEL-2 melanoma was more than 100 µM each time. The TGI in the test with SK-MEL-28 melanoma, in the test on SNB-75 CNS, in the test with U251 CNS and in the test on UACC-62 melanoma was more than 100 µM in each case.

With `COc1ccc2c(c1)C(=O)c1c-2c(Nc2ccccc2OC)nc2ccccc12`, the GI50 with CCRF-CEM leukemia, with HS 578T breast, in the test with MALME-3M melanoma, in the test with NCI/ADR-RES ovarian, in the test with PC-3 prostate and in the test on SK-MEL-2 melanoma was more than 100 µM in each case. In addition, the GI50 is more than 100 µM in the test on SK-MEL-28 melanoma, more than 100 µM in the test on SNB-75 CNS, 83.2 µM with U251 CNS and more than 100 µM with UACC-62 melanoma. Further, the TGI in the test on CCRF-CEM leukemia, in the test on HS 578T breast, in the test with MALME-3M melanoma, in the test with NCI/ADR-RES ovarian, in the test on PC-3 prostate and in the test with SK-MEL-2 melanoma was more than 100 µM in each case. The TGI in the test on SK-MEL-28 melanoma, in the test on SNB-75 CNS, in the test on U251 CNS and with UACC-62 melanoma was more than 100 µM in each case.
